Entries after “also recorded” stand apart in the source; their conditions may differ.
Tests used:
[1] = test system: BSY-1 (breast) human cancer cell line; test: BSY-1 subcutaneous xenograft in nude mice, relative tumor volume ratio; type: in vivo; conditions: for Tumor volume ratio (T/C %): BSY-1 s.c. in nude mice, intravenously 10 mg/kg/day for five days
Method: (§1) The 25 human cancer cells proliferated in culture flasks or in the subcutaneous tissues of the nude mice were subcutaneously implanted to the bodysides of nude mice, and the mice were classified into a group of 5 control mice and a group of 5 treated mice of the compound 2 so that the average tumor volume of each group was uniform at the time of a tumor volume of 100 mm^3 or larger. The mice of the treated group were intravenously infused at 10 mg/kg/day for five days, and the mice of the control group were not treated or infused with the vehicle. The tumor volume was measured from day 1, subsequently measured over time on Day 5, 8, 12, 15, and a relative tumor volume ratio (T/C %)was estimated.
(§2) The cancer cells proliferated in culture flasks or in the subcutaneous tissues of the nude mice were subcutaneously implanted to the bodysides of nude mice, and the mice were classified into a group of 5 control mice and a group of 5 treated mice of the compounds so that the average tumor volume of each group was uniform at the time of a tumor volume of 100 mm^3 or larger. The mice of the treated group were intravenously infused at 10 mg/kg/day for five days, and the mice of the control group were not treated or infused with the vehicle. The tumor volume was measured from Day 1, and subsequently measured over time on Day 5, 8, 12, 15, and the relative tumor volume ratio was estimated. However, the experiment was basically discontinued at Day 15 in evaluation of the compound 1. In Table 2, the T/C % of the compounds 1, 2, 4 and the compound 2 in Example 2 to each cancer cell are shown.

[2] = test system: OVCAR3 (ovarian) human cancer cell line; test: OVCAR3 subcutaneous xenograft in nude mice, relative tumor volume ratio; type: in vivo; conditions: OVCAR3 s.c. in nude mice; intravenously 10 mg/kg/day for five days
Method: as §1
(§3) The cancer cells proliferated in culture flasks or in the subcutaneous tissues of the nude mice were subcutaneously implanted to the bodysides of nude mice, and the mice were classified into a group of 5 control mice and a group of 5 treated mice of the compounds so that the average tumor volume of each group was uniform at the time of a tumor volume of 100 mm^3 or larger. The mice of the treated group were intravenously infused at 10 mg/kg/day for five days, and the mice of the control group were not treated or infused with the vehicle. The tumor volume was measured from Day 1, and subsequently measured over time on Day 5, 8, 12, 15, and the relative tumor volume ratio was estimated. […]

[3] = test system: PC-3 (prostate) human cancer cell line; test: PC-3 subcutaneous xenograft in nude mice, relative tumor volume ratio; type: in vivo; conditions: PC-3 s.c. in nude mice; intravenously 10 mg/kg/day for five days
Method: as §1, §2

[4] = test system: FaDu (head & neck) human cancer cell line; test: FaDu subcutaneous xenograft in nude mice, relative tumor volume ratio; type: in vivo; conditions: FaDu s.c. in nude mice; intravenously 10 mg/kg/day for five days
Method: as §1, §2

[5] = test system: WiDr (colorectal) human cancer cell line; test: WiDr subcutaneous xenograft in nude mice, relative tumor volume ratio; type: in vivo; conditions: WiDr s.c. in nude mice; intravenously 10 mg/kg/day for five days
Method: as §1, §2

[6] = test system: NCI-H596 (NSCLC) human cancer cell line; test: NCI-H596 subcutaneous xenograft in nude mice, relative tumor volume ratio; type: in vivo; conditions: NCI-H596 s.c. in nude mice; intravenously 10 mg/kg/day for five days
Method: as §1, §3

[7] = test system: DU145 (prostate) human cancer cell line; test: DU145 subcutaneous xenograft in nude mice, relative tumor volume ratio; type: in vivo; conditions: DU145 s.c. in nude mice; intravenously 10 mg/kg/day for five days
Method: as §1, §2

[8] = test system: MDA-MB435 (breast) human cancer cell line; test: MDA-MB435 subcutaneous xenograft in nude mice, relative tumor volume ratio; type: in vivo; conditions: MDA-MB435 s.c. in nude mice; intravenously 10 mg/kg/day for five days
Method: as §1, §3

[9] = test system: HT-29 (colorectal) human cancer cell line; test: HT-29 subcutaneous xenograft in nude mice, relative tumor volume ratio; type: in vivo; conditions: HT-29 s.c. in nude mice; intravenously 10 mg/kg/day for five days
Method: as §1, §2

[10] = test system: NCI-H460 (NSCLC) human cancer cell line; test: NCI-H460 subcutaneous xenograft in nude mice, relative tumor volume ratio; type: in vivo; conditions: for Tumor volume ratio (T/C %): NCI-H460 s.c. in nude mice, intravenously 10 mg/kg/day for five days
Method: as §1, §2

[11] = test system: NCI-H522 (SCLC) human cancer cell line; test: NCI-H522 subcutaneous xenograft in nude mice, relative tumor volume ratio; type: in vivo; conditions: NCI-H522 s.c. in nude mice; intravenously 10 mg/kg/day for five days
Method: as §1, §3

[12] = test system: DLD-1 (colorectal) human cancer cell line; test: DLD-1 subcutaneous xenograft in nude mice, relative tumor volume ratio; type: in vivo; conditions: DLD-1 s.c. in nude mice; intravenously 10 mg/kg/day for five days
Method: as §1, §3

[13] = test system: human breast cancer cell line (BSY-1); conditions: reported in WO 02/060890, WO 03/099813, WO 04/011661; cited from earlier work
[14] = test system: LC-6-JCK (NSCLC) human cancer cell line; test: LC-6-JCK subcutaneous xenograft in nude mice, relative tumor volume ratio; type: in vivo; conditions: LC-6-JCK s.c. in nude mice; intravenously 10 mg/kg/day for five days
Method: as §1, §3

[15] = test system: SW620 (colorectal) human cancer cell line; test: SW620 subcutaneous xenograft in nude mice, relative tumor volume ratio; type: in vivo; conditions: SW620 s.c. in nude mice; intravenously 10 mg/kg/day for five days
Method: as §1, §3

[16] = test system: human colon cancer cell line (WiDr); conditions: reported in WO 03/099813 and related filings; cited from earlier work
[17] = test system: MDA-MB468 (breast) human cancer cell line; test: MDA-MB468 subcutaneous xenograft in nude mice, relative tumor volume ratio; type: in vivo; conditions: MDA-MB468 s.c. in nude mice; intravenously 10 mg/kg/day for five days
Method: as §1

[18] = test system: NCI-H146 (SCLC) human cancer cell line; test: NCI-H146 subcutaneous xenograft in nude mice, relative tumor volume ratio; type: in vivo
Method: as §1

[19] = test system: NCI-H69 (SCLC) human cancer cell line; test: NCI-H69 subcutaneous xenograft in nude mice, relative tumor volume ratio; type: in vivo; conditions: NCI-H69 s.c. in nude mice; intravenously 10 mg/kg/day for five days
Method: as §1

[20] = test system: NCI-H526 (SCLC) human cancer cell line; test: NCI-H526 subcutaneous xenograft in nude mice, relative tumor volume ratio; type: in vivo
Method: as §1

[21] = test system: HBC4 (breast) human cancer cell line; test: HBC4 subcutaneous xenograft in nude mice, relative tumor volume ratio; type: in vivo; conditions: HBC4 s.c. in nude mice; intravenously 10 mg/kg/day for five days
Method: as §1

[22] = test system: Lu99 (NSCLC) human cancer cell line; test: Lu99 subcutaneous xenograft in nude mice, relative tumor volume ratio; type: in vivo; conditions: Lu99 s.c. in nude mice; intravenously 10 mg/kg/day for five days
Method: as §1

[23] = test system: NCI-H510 (SCLC) human cancer cell line; test: NCI-H510 subcutaneous xenograft in nude mice, relative tumor volume ratio; type: in vivo; conditions: NCI-H510 s.c. in nude mice; intravenously 10 mg/kg/day for five days
Method: as §1

[24] = test system: KPL-4 (breast) human cancer cell line; test: KPL-4 subcutaneous xenograft in nude mice, relative tumor volume ratio; type: in vivo; conditions: KPL-4 s.c. in nude mice; intravenously 10 mg/kg/day for five days
Method: as §1

[25] = test system: SK-OV-3 (ovarian) human cancer cell line; test: SK-OV-3 subcutaneous xenograft in nude mice, relative tumor volume ratio; type: in vivo; conditions: SK-OV-3 s.c. in nude mice; intravenously 10 mg/kg/day for five days
Method: as §1

[26] = test system: KM12 (colorectal) human cancer cell line; test: KM12 subcutaneous xenograft in nude mice, relative tumor volume ratio; type: in vivo; conditions: KM12 s.c. in nude mice; intravenously 10 mg/kg/day for five days
Method: as §1

[27] = test system: Calu-1 (NSCLC) human cancer cell line; test: Calu-1 subcutaneous xenograft in nude mice, relative tumor volume ratio; type: in vivo; conditions: Calu-1 s.c. in nude mice; intravenously 10 mg/kg/day for five days
Method: as §1

Structure (SMILES)	Tumor volume ratio (T/C %) [1] [%]	Tumor volume ratio (T/C %) [2] [%]	Tumor volume ratio (T/C %) [3] [%]	Tumor volume ratio (T/C %) [4] [%]	Tumor volume ratio (T/C %) [5] [%]	Tumor volume ratio (T/C %) [6] [%]	Tumor volume ratio (T/C %) [7] [%]	Tumor volume ratio (T/C %) [8] [%]	Tumor volume ratio (T/C %) [9] [%]	Tumor volume ratio (T/C %) [10] [%]	Tumor volume ratio (T/C %) [11] [%]	Tumor volume ratio (T/C %) [12] [%]	Tumor volume ratio (T/C %) [14] [%]	Tumor volume ratio (T/C %) [15] [%]	Antitumor activity to WiDr (in words) [16]	further results
CCC(O)C(C)C1OC1CC(C)/C=C/C=C(\C)C1OC(=O)CC(O)CCC(C)(O)C(OC(C)=O)/C=C/C1C (stereo not drawn) [Compound 1, (8E,12E,14E)-7-acetoxy-3,6,21-trihydroxy-6,10,12,16,20-pentamethyl-18,19-epoxytricosane-8,12,14-trien-11-olide]	0	23	20	33	29	76	26	50	58	53	64	59				Antitumor activity to BSY-1 (in words) [13]: high sensitivity; also recorded: high antitumor activity
CCC(O)C(C)C1OC1CC(C)(O)/C=C/C=C(\C)C1OC(=O)CC(O)CCC(C)(O)C(OC(=O)N2CCN(C(C)C)CC2)/C=C/C1C (stereo not drawn) [Compound 3, (8E,12E,14E)-3,6,16,21-tetrahydroxy-7-((4-isopropylpiperazin-1-yl)carbonyl)oxy-6,10,12,16,20-pentamethyl-18,19-epoxytricosane-8,12,14-trien-11-olide]	2		4	1	4		34		26				0	19	antitumor activity	
CCC(O)C(C)C1OC1CC(C)(O)/C=C/C=C(\C)C1OC(=O)CC(O)CCC(C)(O)C(OC(=O)N2CCN(C3CCCCCC3)CC2)/C=C/C1C (stereo not drawn) [Compound 2, (8E,12E,14E)-7-((4-cycloheptylpiperazin-1-yl)carbonyl)oxy-3,6,16,21-tetrahydroxy-6,10,12,16,20-pentamethyl-18,19-epoxytricosane-8,12,14-trien-11-olide]	0	0	2	3	4	18	28	28	28	33	42	47	0	28		Sensitivity of the cancer cell line to the compound (in words) ([1]; BSY-1 xenograft in nude mice): high sensitivity until remission; Tumor volume ratio (T/C %) [17]: 0%; Tumor volume ratio (T/C %) ([18]; NCI-H146 s.c. in nude mice, intravenously 10 mg/kg/day for five days): 1%; Course of the tumor (in words) ([18]; NCI-H146 xenograft in nude mice, tumor not eliminated): consecutive reduction of the tumor for a long term; Tumor volume ratio (T/C %) [19]: 1%; Sensitivity of the cancer cell line to the compound (in words) ([20]; H526 xenograft in nude mice): high sensitivity without remission; Tumor volume ratio (T/C %) ([20]; NCI-H526 s.c. in nude mice, intravenously 10 mg/kg/day for five days): 1%; Tumor volume ratio (T/C %) [21]: 5%; Tumor volume ratio (T/C %) [22]: 8%; Tumor volume ratio (T/C %) [23]: 10%; Tumor volume ratio (T/C %) [24]: 23%; Tumor volume ratio (T/C %) [25]: 27%; Sensitivity of the cancer cell line to the compound (in words) ([10]; H460 xenograft in nude mice): low sensitivity; Tumor volume ratio (T/C %) [26]: 34%; Tumor volume ratio (T/C %) [27]: 55%
CCC(O)C(C)C1OC1CC(C)(O)/C=C/C=C(\C)C1OC(=O)CC(O)CCC(C)(O)C(OC(=O)N2CCN(C)CC2)/C=C/C1C (stereo not drawn) [Compound 4, (8E,12E,14E)-3,6,16,21-tetrahydroxy-6,10,12,16,20-pentamethyl-7-((4-methylpiperazin-1-yl)-carbonyl)oxy-18,19-epoxytricosane-8,12,14-trien-11-olide]			3	5	7		26		46						antitumor activity	
